Source: patent US8748598B2, “Analogs of 3-O-acetyl-11-keto-beta-boswellic acid” (Laila Nutraceuticals, priority 2004, dated 2014)
In brackets after ≈: the same amount, converted by molar mass. Read-outs that look alike come from different tables or passages of the source.

Columns and labels:
MCF-7 = assay: MTT cell proliferation assay, MCF-7; type: cell-based, human; conditions: for inhibition at 10 µg/mL / IC50: Homo sapiens, MCF7
Experimental: (§1) MTT [3-(4,5-dimethylthiazol-2-yl)-2,5-diphenyltetrazolium bromide] incorporation based cell proliferation assay was performed as described previously (Reference). The cytotoxic efficacy of some analogs was evaluated in different cell lines by MTT cell proliferation assay kit (Roche Applied Sciences, Germany). The assay was carried out according to the instruction provided by the vendor. Briefly, in brief, equal numbers of cells was plated in 96-well flat-bottomed plates in 100 μl of medium and were exposed to different analogs selected from 1 to 63 at various concentrations up to 10 μg/ml for a period of three days. Vehicle control culture wells received only a maximum of 0.5% DMSO. Thereafter, 0.5 mg/ml of MTT reagent was added to each well and the microplate was incubated further for 4 h at 37° C. in presence of 5% CO2. Finally, the cells were solubilized by adding solubilizing solution and allowed to incubate at 37° C. overnight. After complete solubilization of the formazan crystals the absorbance was read at 540 nm in a microplate reader (BioRad, USA). The results (mean OD±SD) obtained from quadruplicate wells were used in calculation to determine the inhibition of cell proliferation (50% of inhibitory concentration, IC50) of the test compounds.
(§2) The cytotoxic properties of some analogs were evaluated by MTT incorporation assay. The methodology of the assay procedure was the same as mentioned in example 41.

potato 5-lipoxygenase = assay: 5-Lipoxygenase enzyme inhibitory activity; type: biochemical
Experimental: 5-Lipoxygenase enzyme inhibitory activity was measured using the method of Schewe et al. (Adv Enzymol, Vol 58, 191-272, 1986), modified by Reddanna et. al., (Methods of Enzymology, Vol 187, 268-277, 1990). The assay mixture contained 80 μM linoleic acid and sufficient amount of potato 5-lipoxygenase in 50 mM phosphate buffer (pH 6.3). The reaction was initiated by the addition of enzyme buffer mix to linoleic acid and the enzyme activity was monitored as the increase in absorbance at 234 nm. The reaction was monitored for 120 sec and the inhibitory potential of the test substances (29, 31, 33, 34, 35, 36, 39, 40, 43, 44, 46, 47, 48, 49, 50, 54, 57, 59, 62 & 63) was measured by incubating various concentrations of test substances two minutes before the addition of linoleic acid. All assays were performed three times. Percentage inhibition was calculated by comparing the slope of the curve obtained for test substances with that of the control.

MDA-MB-231 = assay: MTT cell proliferation assay, MDA-MB-231; type: cell-based, human; conditions: for IC50 / inhibition at 10 µg/mL: Homo sapiens, MDA-MB-231
Experimental: as §1, §2

A549 = assay: MTT cell proliferation assay, A549; type: cell-based, human; conditions: Homo sapiens, A549; Table 2; 10 ug/ml
Experimental: as §1

[1] = Table 4, 10 μg/ml, read-out: Percentage Inhibition of cell proliferation MCF-7
[2] = Table 4, 10 μg/ml, read-out: Percentage Inhibition of cell proliferation MDA-MB-231
[3] = Table 2, 10 ug/ml, read-out: Inhibition of cell proliferation MCF-7, % at 10 ug/ml
[4] = Table 2, 10 ug/ml, read-out: Inhibition of cell proliferation MDA-MB-231, % at 10 ug/ml

% inhibition at 10 μg/ml (potato 5-lipoxygenase) [%] | % inhibition at 25 μg/ml (potato 5-lipoxygenase) [%] | SMILES | inhibition at 10 µg/mL (MCF-7; [1]) [%] | inhibition at 10 µg/mL (MDA-MB-231; [2]) [%] | further results
19.01 | 30.56 | CC(=O)O[C@@H]1CC[C@@]2(C)C(CC[C@]3(C)C2C(=O)C=C2C4[C@@H](C)[C@H](C)CC[C@]4(C)CC[C@]23C)[C@@]1(C)C(=O)Nc1ccc(O)cc1 (stereo partly shown) [Analog 46] | 39 | – | –
35.69 | 64.24 | CC(=O)O[C@@H]1CC[C@@]2(C)C(CC[C@]3(C)C2CC=C2C4[C@@H](C)[C@H](C)CC[C@]4(C)CC[C@]23C)[C@@]1(C)C(=O)N1CCNCC1 (stereo partly shown) [Analog 54] | – | – | –
19.88 | 30.02 | CC(=O)O[C@@H]1CC[C@@]2(C)C(CC[C@]3(C)C2C(=O)C=C2C4[C@@H](C)[C@H](C)CC[C@]4(C)CC[C@]23C)[C@@]1(C)C(=O)Nc1ccccc1Br (stereo partly shown) [Analog 44] | – | – | IC50 (MCF-7; Table 4): 24.1 µg/mL (≈ 36.1 µM); IC50 (MDA-MB-231; Table 4): 28.6 µg/mL (≈ 43 µM)
– | – | CC(=O)O[C@@H]1CC[C@@]2(C)C(CC[C@]3(C)C2C(=O)C=C2C4[C@@H](C)[C@H](C)CC[C@]4(C)CC[C@]23C)[C@@]1(C)C(=O)N1CCOCC1 (stereo partly shown) [Analog 37] | – | 23 | –
– | – | COC(=O)CCC(NC(=O)[C@]1(C)C2CC[C@]3(C)C(C(=O)C=C4C5[C@@H](C)[C@H](C)CC[C@]5(C)CC[C@]43C)[C@@]2(C)CC[C@H]1OC(C)=O)C(=O)OC (stereo partly shown) [Analog 56] | 20 | 47 | –
– | – | CC(=O)O[C@@H]1CC[C@@]2(C)C(CC[C@]3(C)C2CC=C2C4[C@@H](C)[C@H](C)CC[C@]4(C)CC[C@]23C)[C@@]1(C)C(=O)NCCN (stereo partly shown) [Analog 51] | – | – | IC50 values MCF-7 (MCF-7; Table 4): IC50 at 9.27 μg/ml; IC50 values MDA-MB-231 (MDA-MB-231; Table 4): IC50 at 10.5 μg/ml
– | – | CC(=O)OC1CC[C@@]2(C)C(CC[C@]3(C)C2C(=O)C=C2C4[C@@H](C)[C@H](C)CC[C@]4(C)CC[C@]23C)[C@@]1(C)C(=O)OCCN(C)C (stereo partly shown) [Analog 18] | – | – | Percentage Inhibition of cell proliferation MCF-7 (MCF-7; Table 4, 10 μg/ml): 5.97 at 10 μg/ml %
21.46 | 39.24 | C[C@@H]1CC[C@]2(C)CC[C@]3(C)C(=CC(Cl)=C4[C@@]5(C)CC[C@@H](O)[C@](C)(C(=O)O)C5CC[C@]43C)C2[C@H]1C (stereo partly shown) [Analog 59] | – | – | –
– | – | C[C@@H]1CC[C@]2(C)CC[C@]3(C)C(=CC(=O)C4[C@@]5(C)CC[C@@H](O)[C@](C)(C(=O)N6CCN(CCO)CC6)C5CC[C@]43C)C2[C@H]1C (stereo partly shown) [Analog 38] | 2.73 | 20 | –
– | – | COC(=O)CNC(=O)[C@]1(C)C2CC[C@]3(C)C(C(=O)C=C4C5[C@@H](C)[C@H](C)CC[C@]5(C)CC[C@]43C)[C@@]2(C)CC[C@H]1OC(C)=O (stereo partly shown) [Analog 32] | 14 | 41 | inhibition at 10 µg/mL (MCF-7; [3]): 14%; inhibition at 10 µg/mL (A549): 10%; inhibition at 10 µg/mL (MDA-MB-231; [4]): 41%
– | – | CC(=O)O[C@@H]1CC[C@]2(C)C3=C(Cl)C=C4C5[C@@H](C)[C@H](C)CC[C@]5(C)CC[C@@]4(C)[C@]3(C)CCC2[C@@]1(C)C(=O)NCCN (stereo partly shown) [Analog 61] | 41 | – | IC50 (MDA-MB-231; Table 4): 8.55 µg/mL (≈ 14.9 µM)
36.20 | 57.86 | CC(=O)O[C@@H]1CC[C@]2(C)C3=C(Cl)C=C4C5[C@@H](C)[C@H](C)CC[C@]5(C)CC[C@@]4(C)[C@]3(C)CCC2[C@@]1(C)C(=O)N1CCNCC1 (stereo partly shown) [Analog 63] | – | – | –
– | – | CC(=O)O[C@@H]1CC[C@@]2(C)C(CC[C@]3(C)C2C(=O)C=C2C4[C@@H](C)[C@H](C)CC[C@]4(C)CC[C@]23C)[C@@]1(C)C(=O)Nc1ccccc1 (stereo partly shown) [Analog 42] | 2.33 | 6 | –
– | – | CC(=O)O[C@@H]1CC[C@@]2(C)C(CC[C@]3(C)C2C(=O)C=C2C4[C@@H](C)[C@H](C)CC[C@]4(C)CC[C@]23C)[C@@]1(C)C(=O)NC1Cc2ccccc2C1 (stereo partly shown) [Analog 41] | 3.74 | 23 | –
– | – | CC1CCC2(C)CCC3(C)C(=CC(=O)C4C5(C)CCC(OC(=O)CCC(=O)O)C(C)(C(=O)O)C5CCC43C)C2C1C (stereo not shown) [Analog 4] | – | – | Percentage Inhibition of cell proliferation MCF-7 (MCF-7; Table 4, 10 μg/ml): 26.6% at 10 μg/ml; Percentage Inhibition of cell proliferation MDA-MB-231 (MDA-MB-231; Table 4, 10 μg/ml): 40.7% at 10 μg/ml
14.57 | 30.90 | CNC(=O)[C@]1(C)C2CC[C@]3(C)C(C(=O)C=C4C5[C@@H](C)[C@H](C)CC[C@]5(C)CC[C@]43C)[C@@]2(C)CC[C@H]1OC(C)=O (stereo partly shown) [Analog 43] | 12.6 | 47.8 | –
18.40 | 40.47 | CC(=O)O[C@@H]1CC[C@@]2(C)C(CC[C@]3(C)C2C(=O)C=C2C4[C@@H](C)[C@H](C)CC[C@]4(C)CC[C@]23C)[C@@]1(C)C(=O)n1ccnc1 (stereo partly shown) [Analog 40] | 2.7 | 31 | –
– | – | CC(=O)O[C@@H]1CC[C@@]2(C)C(CC[C@]3(C)C2C(=O)C=C2C4[C@@H](C)[C@H](C)CC[C@]4(C)CC[C@]23C)[C@@]1(C)C(=O)N(C)CCO (stereo partly shown) [Analog 45] | – | – | IC50 (MCF-7; Table 4): 11.9 µg/mL (≈ 20.8 µM); IC50 (MDA-MB-231; Table 4): 12 µg/mL (≈ 21 µM)
35.94 | 54.10 | CC(=O)O[C@@H]1CC[C@@]2(C)C(CC[C@]3(C)C2C(=O)C=C2C4[C@@H](C)[C@H](C)CC[C@]4(C)CC[C@]23C)[C@@]1(C)C(=O)NNc1ccccc1 (stereo partly shown) [Analog 47] | 10 | 39 | –
33.29 | – | CCCCNC(=O)[C@]1(C)C2CC[C@]3(C)C(C(=O)C=C4C5[C@@H](C)[C@H](C)CC[C@]5(C)CC[C@]43C)[C@@]2(C)CC[C@H]1OC(C)=O (stereo partly shown) [Analog 29] | – | – | Inhibition of cell proliferation MCF-7, % at 10 ug/ml (MCF-7; Table 2, 10 ug/ml): 38.3% at; Percentage Inhibition of cell proliferation MCF-7 (MCF-7; Table 4, 10 μg/ml): 38.3 at 10 μg/ml %; Inhibition of cell proliferation MDA-MB-231, % at 10 ug/ml (MDA-MB-231; Table 2, 10 ug/ml): 36% at 10; Percentage Inhibition of cell proliferation MDA-MB-231 (MDA-MB-231; Table 4, 10 μg/ml): 36% at 10 μg/ml
– | – | CC(=O)O[C@@H]1CC[C@@]2(C)C(CC[C@]3(C)C2C(=O)C=C2C4[C@@H](C)[C@H](C)CC[C@]4(C)CC[C@]23C)[C@@]1(C)C(=O)NC(C)C (stereo partly shown) [Analog 30] | 46 | 35 | inhibition at 10 µg/mL (MCF-7; [3]): 46%; inhibition at 10 µg/mL (A549): 18%; inhibition at 10 µg/mL (MDA-MB-231; [4]): 35%
– | – | COC(=O)[C@]1(C)C2CC[C@]3(C)C(C(=O)C=C4C5[C@@H](C)[C@H](C)CC[C@]5(C)CC[C@]43C)[C@@]2(C)CC[C@H]1S (stereo partly shown) [Analog 15] | 21.6 | 37.5 | –
36.26 | – | CC(=O)O[C@@H]1CC[C@]2(C)C3=C(Cl)C=C4C5[C@@H](C)[C@H](C)CC[C@]5(C)CC[C@@]4(C)[C@]3(C)CCC2[C@@]1(C)C(=O)NN (stereo partly shown) [Analog 62] | – | – | –
31.55 | 47.02 | CC(=O)O[C@@H]1CC[C@@]2(C)C(CC[C@]3(C)C2C(=O)C=C2C4[C@@H](C)[C@H](C)CC[C@]4(C)CC[C@]23C)[C@@]1(C)C(=O)NCCN(CCO)CCO (stereo partly shown) [Analog 49] | – | – | Percentage Inhibition of cell proliferation MCF-7 (MCF-7; Table 4, 10 μg/ml): 40.9% at 10 ug/ml; Percentage Inhibition of cell proliferation MDA-MB-231 (MDA-MB-231; Table 4, 10 μg/ml): 21.4 at 10 μg/ml %
32.11 | 48.69 | CC(=O)O[C@@H]1CC[C@@]2(C)C(CC[C@]3(C)C2C(=O)C=C2C4[C@@H](C)[C@H](C)CC[C@]4(C)CC[C@]23C)[C@@]1(C)C(=O)N1CCN(CCO)CC1 (stereo partly shown) [Analog 39] | – | – | –
